Test results from ChEMBL document CHEMBL1153802, “Human plasma-mediated hypoxic activation of indolequinone-based naloxone pro-drugs” (Bioorg Med Chem Lett, 2009).

System: Plasma
Assay: Prodrug stability in human plasma assessed as […] release under normoxic condition after 24 hrs by HPLC analysis
Assay type: ADME, cell-free

C=CCN1CC[C@]23c4c5ccc(OC(=O)N(C)CCN(C)C(=O)OCc6c7c(n(C(=O)NCCOCCOCCNC(=O)OC(C)(C)C)c6C)C(=O)C=C(OC)C7=O)c4O[C@H]2C(=O)CC[C@@]3(O)[C@H]1C5
Stability: Unstable
